Measured values from US8148392B2, “2-indolyl imidazo [4,5-d] phenanthroline derivatives and their use in the treatment of cancer” (Lorus Therapeutics Inc., priority 2005, dated 2012).
“Also recorded” adds a separate entry of the source. Like-named read-outs stand apart in the source and are kept apart here.

Legend:
H-460 lung cancer cells = experiment: XTT cell proliferation assay, H-460; type: cell-based, human
Protocol: Cell growth inhibition IC50 (μM) by compounds of Formula I was tested on various cancer cell types by XTT cell proliferation assay. The growth inhibitory effects of the compounds of Formula I as shown below for the melanoma cell line SK-MEL-2 were reproducible by Lorus Therapeutics Inc.

KLF4 [1] = experiment: KLF4 gene expression by RT-PCR, SK-MEL-2; type: cell-based, human; conditions: SK-MEL-2, relative to vehicle control as 1
Description: (§1) Gene expression levels of KLF4, induced by compounds of Formula I, were also examined on various cancer cell types by RT-PCR. Fold changes in KLF4 in compound-treated cells were expressed relative to KLF4 expression in vehicle control-treated cells of respective cell type as “1”. […] Additionally, xenografts of MDA-MB-435 implanted into mammary fat pads of female SCID mice have shown immunohistochemical staining consistent with melanocytic origin (Ellison G, Klinowska T, Westwood R F, Docter E, French T, Fox J C. (2002) Mol Pathol. 55(5): 294-299). The breast cancer cell line MDA-MB-435 may be expected to function differently than the other breast cancer cell lines.

[2] = tested on: human colon carcinoma HT-29 cells; experiment: XTT cell proliferation assay, HT-29; type: cell-based
Outline: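 HT-29 cells in McCoy's 5A with 10% FBS, 37° C., 5% CO2, exposed to varying compound concentrations for 6-7 days. Viable cells quantified by XTT reduction to formazan; growth inhibition expressed as IC50 (μM).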

[3] = tested on: metallothionein 1A (MT1A); experiment: Metallothionein 1A (MT1A) mRNA expression in HT-29 cells, real time PCR; type: cell-based, human; conditions: for MT1A expression change with zinc supplement: HT-29, 1 μM compound plus 35 μM ZnCl2; for MT1A gene expression, change: HT-29, versus DMSO control, in words
Protocol: To determine whether compounds of Formula I can chelate zinc in cells, the effect of compound 3 on the expression level of a zinc-regulated gene, metallothionein 1A (MT1A), in human colon carcinoma HT-29 cells, was determined. HT-29 cells, 1×10^6 cells in 10 mL volume of the growth medium were seeded in 100 mm dishes and incubated overnight at 37° C. The medium was removed and replaced with the growth medium containing 35 μM ZnCl2, 1 μM or 4 μM TPEN (NNNN-tetrakis(2-pyridyl-methyl)ethylenediamine), or 1 μM or 4 μM compound 3, or 0.1% DMSO vehicle control. After incubation for 16 hours, the cells were detached by trypsinization, collected by centrifugation and washed once with PBS. Total RNA was extracted by using TRIZOL (Invitrogen, Life Technologies, Carlsbad, Calif.), following manufacturer's instruction, and the level of MT1A mRNA was measured by real time PCR using the comparative CT method as follows. First strand cDNA was synthesized from 200 ng total RNA in Biometra Tpersonal Thermal Cycler (Abgene, UK), using pd(N)6 random hexamer (Amersham Biosciences, Piscataway, N.J.) and SuperScript™ II Reverse Transcriptase kit (Invitrogen) by following manufacturer's protocol. Real-time PCR was performed in ABI Prism 7000 Sequence Detection System (Applied Biosystems Inc., ABI, Foster City, Calif.), using 5 μL of cDNA synthesized by above-mentioned procedure and respective TaqMan® Gene Expression Assays (ABI) by following ABI TaqMan® Universal PCR master mix protocol.
The effect of compound 3 and compound 7 treatment on the expressions of a zinc-storage protein meallothionein 1A (MT1A) (FIG. 29A), a copper transporter, Ctrl also known as SLC31A1 (FIG. 29B) and an iron transporter; transferrin receptor 1 (TfR1) (FIG. 29C) were measured and compared with a known zinc chelator TPEN, a copper chelator tetramine and an iron chelator DFO, respectively. Despite in vitro chelation of Cu^+2, increase in copper-sensitive gene after compound 3 treatment was transient.
HT-29 cells were treated with 1 μM compound 3 for the indicated time and MT1A gene expression was measured as follows. Total RNA was extracted using TRIZOL method and gene expression level was determined by quantitative reverse-transcription polymerase chain reaction (RT-PCR). MT1A gene expression was normalized with β-actin gene expression in the same sample. Fold change in MT1A was expressed relative to MT1A level of DMSO control at respective time points.
To verify that the MT1A gene expression reflected the intracellular zinc level, HT-29 cells were treated with 1 μM compound 3, 35 μM ZnCl2 or compound 3 and ZnCl2 together for 16 hr (FIG. 38B). MT1A gene expression was determined by RT-PCR as described above. MT1A gene expression was elevated in response to increased intracellular zinc ions in ZnCl2-treated cells.
The ability of compounds of Formula I to modulate gene expression of MT1A (FIG. 55A), MTF-1 (FIG. 55B), Cyclin D1 (FIG. 55C) and KLF4 (FIG. 55D) was determined by RT-PCR. HT-29 cells were treated with 1 μM compound 3 or compound 7, 35 μM ZnCl2, compound 3 and ZnCl2 together, or compound 7 and ZnCl2 together for 8 to 16 hr. The respective gene expression was normalized with β-actin gene expression in the same sample. Fold change in gene expression was expressed relative to the respective gene level of DMSO control.
The effect of compound 3 and compound 64 on gene expression changes in MT1A (FIG. 57A), MTF-1 (FIG. 57B), Cyclin D1 (FIG. 57C) and KLF4 (FIG. 57D) in HT-29 cells was determined by RT-PCR. HT-29 cells were treated with 1 μM compound 3 or compound 64, 35 μM ZnCl2, compound 3 and ZnCl2 together, or compound 64 and ZnCl2 together for 8 to 16 hr. The respective gene expression was normalized with β-actin gene expression in the same sample. Fold change in gene expression was expressed relative to the respective gene level of DMSO control.

KLF4 [4] = experiment: KLF4 gene expression by RT-PCR, MOLT-4; type: cell-based, human; conditions: MOLT-4, relative to vehicle control as 1
Description: as §1

[5] = Homo sapiens, NCI-H460, read-out: IC50 (cell growth inhibition)
[6] = Homo sapiens, HT-29, XTT, 6-7 days, Table 3, read-out: IC50
[7] = Homo sapiens, HT-29, XTT, as Example 13, Table 7, read-out: IC50
[8] = Homo sapiens, HT-29 colon, Table 8, read-out: IC50 (cell growth inhibition)

Compound	IC50 (H-460 lung cancer cells; [5])	KLF4 (gene fold increase) (KLF4 [1])	IC50 [2, 6]	IC50 [2, 7]	IC50 [2, 8]	MT1A expression change with zinc supplement [3]	decrease of MT1A expression ([3]; HT-29, 16 hours, 1 μM or 4 μM)	MT1A gene expression, change [3]	KLF4 (gene fold increase) (KLF4 [4])	IC50 (H-460 lung cancer cells; read-out: IC50 (cell growth inhibition))	IC50 ([2]; HT-29, XTT, as Example 13, Table 7)	IC50 ([2]; HT-29 colon, Table 8, read-out: IC50 (cell growth inhibition))
Cc1[nH]c2ccccc2c1-c1nc2c3cccnc3c3ncccc3c2[nH]1 [Compound 3]	2900 nM	2.38 fold	600 nM	0.6 µg/mL	710 nM	reversed by addition of zinc supplement	more than 50%	sustained decrease in zinc-sensitive gene; also recorded: decrease in MT1A gene expression was obvious after 8 hr treatment; also recorded: decreased expressions of MT1A, MTF-1 and Cyclin D1	44.79 fold	–	–	–
Cc1[nH]c2ccc(F)cc2c1-c1nc2c3cccnc3c3ncccc3c2[nH]1 [Compound 7]	2600 nM	3.32 fold	700 nM	0.7 µg/mL	800 nM	reversed by addition of zinc supplement	–	decreased expressions of MT1A, MTF-1 and Cyclin D1	173.6 fold	–	–	–
CCc1cccc2c(-c3nc4c5cccnc5c5ncccc5c4[nH]3)c(C(C)(C)C)[nH]c12 [Compound 64]	–	5.35 fold	–	–	–	reversed by addition of zinc supplement	–	decreased expressions of MT1A, MTF-1 and Cyclin D1	265.03 fold	300 nM	0.15 µg/mL	150 nM
